{"source": "patent US20210371804A1", "about": "“Videomicroscopy of contractile cell cultures and cell culture methods using same” (Institut de Cardiologie de Montréal, priority 2020, published 2021)", "system": "neonatal cardiomyocytes", "test": "Videomicroscopy of contraction (composite signal ΔS) of neonatal cardiomyocyte monolayers", "assay_type": "cell-based, rat", "settings": "1 minute after injection", "method": "All animal-handling procedures were concordant with the Canadian Council on Animal Care guidelines and were approved by the institutional Animal Research Ethics Committee. Isolation was performed according to the protocol of the neonatal cardiomyocyte isolation kit from Worthington. In summary, one to three days old rats (Sprague-Dawley, Charles River) were sacrificed by decapitation. Beating heart were removed from the rats and immediately put in cold Ca^2+ and Mg^2+-free Hank's Balanced Salt Solution. Ventricular muscle was selected by excision and tissue was minced on ice into 1-3 mm^3 pieces. The mixture was subjected to purified enzymatic digestion (trypsin and collagenase). Isolated cells (enriched cardiomyocytes) were counted and seeded at a density of 10^6 cells/mL in the seeding area of the membrane pre-coated with 0.2% porcine-derived gelatin (G1890, Sigma) and 0.00125% fibronectin solution (F1141, Sigma). Cells were grown for 24 hours in DMEM (319-050-CL, Wisent) with 5% fetal bovine serum (FBS, SH30396.03, Fisher Scientic Co. Ltd) and 1% penicillin/streptomycin (450-201-EL, Wisent). Cardiomyocytes were then FBS starved with 1% penicillin/streptomycin in DMEM 24 h prior to the experiments. Acute effects of the β-adrenergic agonist, isoproterenol (ISO, 16504, Sigma-Aldrich) was studied by videomicroscopy with final concentration of 100 nM at 1 minute after injection. […]"}
{"smiles": "CC(C)NCC(O)c1ccc(O)c(O)c1", "note": "(centres unmarked) [ISO, isoproterenol]", "values": [{"measurement": "slope of the linear regression of <RatioC/R> as a function of <T>", "setting": "ISO 100 nM, 0.146 for CTL, <T> and group effects p<0.001", "value": 0.490}, {"measurement": "period of activity", "setting": "ISO final concentration 100 nM, vs. 1.9±2.4 s in CTL, p<0.05", "value": "0.9 ± 0.6", "unit": "s"}]}
